Legend:
[1] = Apoptosis assay (Annexin V/PI flow cytometry); format: cell-based, human; conditions: human, K562 cells, read-out: Q3: viable
Method: (§1) K562 cells were seeded in six-well plates (1.0 × 10^6 cells/well) and incubated overnight. Compounds of different concentrations were added to the 6-well plates. After incubation for 24 h, the cells were detached with trypsin, washed twice with PBS and cold BioLegend’s cell staining buffer, and then, 5 μL of FITC Annexin V and 10 μL of propidium iodide solution were added. The cells were gently vortexed and incubated in a dark environment for 15 min at room temperature (25 °C). After adding 400 μL of Annexin V binding buffer to each tube, each sample was analyzed by flow cytometry (Sony Biotechnology Cell Sorter SH800S) with proper machine settings, and the data were analyzed by cell sorter software (Sony Biotechnology).

K562 cells = experiment: Apoptosis assay (Annexin V/PI flow cytometry); format: cell-based, human; conditions: 24 h
Method: as §1

YTHDF2 YTH domain = molecular target: T1, YTHDF2 YTH domain (Homo sapiens, UniProt Q9Y5A9); experiment: AlphaScreen assay
T1 sequence (Q9Y5A9 383-553): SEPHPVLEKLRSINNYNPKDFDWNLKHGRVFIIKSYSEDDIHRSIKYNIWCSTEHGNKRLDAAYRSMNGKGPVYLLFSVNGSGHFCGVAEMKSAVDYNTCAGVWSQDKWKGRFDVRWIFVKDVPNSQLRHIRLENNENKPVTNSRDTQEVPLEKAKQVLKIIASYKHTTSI
Method: Initially, the YTHDF2 YTH domain at different concentrations (0–2500 nM) was incubated with varied concentrations of RNA probes (5’-Bi-CGAm6ACUGUC–3′, IDT company) (5, 25, 50, and 100 nM) in 25 mM Hepes (pH 7.5), 100 mM NaCl, and 0.1% BSA to probe the optimal ratio between protein and RNA before the detection signal reached saturation. The AlphaScreen Histidine Detection Kit (Nickel Chelate) (PerkinElmer) 6760619 M and white 384-well Optiplates (PerkinElmer) were used. Anti-His receptor beads (PerkinElmer) (final concentration: 20 μg/mL) and streptavidin donor beads (final concentration: 20 μg/mL) were first added. The reaction mixture was then incubated at room temperature in a dark environment for 1 h to reach equilibrium. The optical signal was detected using a Tecan plate reader.
The inhibitory activities of the phenylpyrazoles (at 100 µM) against YTHDF2 binders
in the amplified luminescent proximity homogeneous assay (AlphaScreen).
phenylpyrazoles featuring a 2 -hydroxybenzoyl moiety R1 (blue) and a 4 -carboxyphenyl moiety
represent average values ± s.d.

| inhibition at 100 μM in AlphaScreen (YTHDF2 YTH domain; 100 μM compound) [%] | inhibitory IC50 in AlphaScreen (in words) (YTHDF2 YTH domain; Figures S3 and S4) | Structure (SMILES) | viability at 24 h, 25 µM ([1]; 25 μM) [%] | viability at 24 h, 50 µM ([1]; 50 μM) [%] | viability at 24 h, 100 µM ([1]; 100 μM) [%] | total apoptosis (Q2 + Q4) (K562 cells; 25 μM) [%] | total apoptosis (Q2 + Q4) (K562 cells; 50 μM) [%] | total apoptosis (Q2 + Q4) (K562 cells; 100 μM) [%] |
| --- | --- | --- | --- | --- | --- | --- | --- | --- |
| – | – | O=C(O)c1ccc(-n2cc(C(=O)c3c(O)ccc4ccccc34)cn2)cc1 [CK-75] | 71.6 | 65.1 | 54.5 | 28.3 | 34.9 | 45.4 |
| > 80 | low double-digit micromolar | O=C(O)c1ccc(-n2cc(C(=O)c3cc(Cl)cc(Cl)c3O)cn2)cc1 [CK-61] | – | – | – | – | – | – |
